According to patent publication US20140378679A1, “CRYSTALLINE CARBOHYDRATE DERIVATIVE” (GLYCOM A/S, priority 2008, published 2014):

Assays:
[1] = Anomeric stability in D2O solution followed by 1H-NMR; type: physicochemical; details: 10 mg in 700 μL D2O, room temperature; 1H-NMR recorded immediately and a day later
Protocol: 10 mg pure α-lactosamine hydrochloride was dissolved in 700 μL D2O, then 1H-NMR spectrum was recorded immediately. A second 1H-NMR spectra was recorded a day later, by which time the clean substance had already anomerized. On first spectrum (FIG. 3, above) at 5.26 ppm the H-1 and at 4.29 ppm the H-1′ can be seen. On the second spectrum (FIG. 3, below) next to the alpha anomer already the beta appears. At 4.78 ppm H-1-beta and at 2.85 ppm H-2-beta can be seen.

SMILES	anomerization of the pure alpha anomer in solution (appearance of beta anomer) [1]	melting point [°C]
Cl.N[C@@H]1[C@@H](O)[C@H](O[C@@H]2O[C@H](CO)[C@H](O)[C@H](O)[C@H]2O)[C@@H](CO)O[C@@H]1O [α-lactosamine hydrochloride]	anomerizes at room temperature within one day	
Cl.N[C@@H]1[C@@H](O)[C@H](O[C@@H]2O[C@H](CO)[C@H](O)[C@H](O)[C@H]2O)[C@@H](CO)O[C@@H]1O (hydrate or solvate) [α-lactosamine hydrochloride]		174
